Data as given in patent publication US7989450B2, “Functionalized diarylisoxazoles inhibitors of ciclooxygenase” (Universita' Degli Studi Di Bari, priority 2008, dated 2011).

Experiments:
[1] = biological target: T1, monocyte COX-2 induced by LPS (Homo sapiens, UniProt P35354); experiment: Biosynthesis of PGE2 in LPS-stimulated human whole blood, index of monocyte COX-2 activity; type: cell-based; settings: human whole blood method, 24 hours at 37° C.; for IC50: LPS 10 microg/ml, PGE2 by RIA
T1 construct: incubated with heparinised whole blood in the presence of LPS (10 microg/ml) for 24 hours at 37° C; endogenous in cells; host or cells: LPS-stimulated monocytes in heparinised whole blood of healthy human volunteers
T1 sequence (P35354 18-604): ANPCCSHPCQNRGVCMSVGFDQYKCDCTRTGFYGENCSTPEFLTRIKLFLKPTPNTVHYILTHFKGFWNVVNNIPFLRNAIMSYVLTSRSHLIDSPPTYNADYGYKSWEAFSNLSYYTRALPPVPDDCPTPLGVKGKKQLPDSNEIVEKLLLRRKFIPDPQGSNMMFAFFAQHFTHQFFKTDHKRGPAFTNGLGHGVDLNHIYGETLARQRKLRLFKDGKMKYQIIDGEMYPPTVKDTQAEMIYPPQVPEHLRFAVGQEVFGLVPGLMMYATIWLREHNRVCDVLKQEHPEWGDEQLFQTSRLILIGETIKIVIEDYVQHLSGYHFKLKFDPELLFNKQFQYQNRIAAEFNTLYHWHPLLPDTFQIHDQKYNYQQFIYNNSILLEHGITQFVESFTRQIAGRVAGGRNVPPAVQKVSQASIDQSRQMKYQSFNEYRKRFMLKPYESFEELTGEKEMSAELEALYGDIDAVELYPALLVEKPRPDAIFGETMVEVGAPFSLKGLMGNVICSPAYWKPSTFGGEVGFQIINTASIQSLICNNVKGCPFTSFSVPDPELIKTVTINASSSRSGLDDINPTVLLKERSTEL
Experimental: (§1) Fourteen healthy volunteers (25-34 years) were enrolled to take part in the study and were studied on various occasions. Peripheral venous blood samples were taken from donors who had not taken FANS in the 2 weeks prior to the study.
Biosynthesis of PGE2 in the Whole Blood as an Index of Monocyte COX-2 Activity Induced by LPS.
Aliquots of 1 ml of whole blood taken from the cubital vein with a syringe containing heparin (20 IU/ml blood) were incubated with lipopolysaccharide (LPS, from Escherichia coli 026:B6; Sigma Chemical Company, St. Louis, Mo.) (10 μg/ml) for 24 hours at 37° C. The plasma was separated by centrifugation and kept at −70° C. The PGE2 was measured with a specific radioimmunological assay (RIA) as an index of monocyte COX-2 activity induced by LPS.

platelet COX-1 = biological target: T2, platelet COX-1 (Homo sapiens, UniProt P23219); experiment: Biosynthesis of TXB2 in human whole blood left to coagulate, index of platelet COX-1 activity; type: cell-based; settings: human whole blood method, coagulation 1 hour at 37° C., TXB2 by RIA
T2 construct: 1 ml aliquots of whole blood were immediately transferred into glass test tubes and left to coagulate at 37° C; endogenous in cells; host or cells: platelets in whole blood of healthy human volunteers
Experimental: as §1
1 ml aliquots of whole blood were immediately transferred into glass test tubes and left to coagulate at 37° C. for 60 minutes.

[2] = secondary prevention, various groups of patients; cited from earlier work

T2 sequence (P23219 24-599): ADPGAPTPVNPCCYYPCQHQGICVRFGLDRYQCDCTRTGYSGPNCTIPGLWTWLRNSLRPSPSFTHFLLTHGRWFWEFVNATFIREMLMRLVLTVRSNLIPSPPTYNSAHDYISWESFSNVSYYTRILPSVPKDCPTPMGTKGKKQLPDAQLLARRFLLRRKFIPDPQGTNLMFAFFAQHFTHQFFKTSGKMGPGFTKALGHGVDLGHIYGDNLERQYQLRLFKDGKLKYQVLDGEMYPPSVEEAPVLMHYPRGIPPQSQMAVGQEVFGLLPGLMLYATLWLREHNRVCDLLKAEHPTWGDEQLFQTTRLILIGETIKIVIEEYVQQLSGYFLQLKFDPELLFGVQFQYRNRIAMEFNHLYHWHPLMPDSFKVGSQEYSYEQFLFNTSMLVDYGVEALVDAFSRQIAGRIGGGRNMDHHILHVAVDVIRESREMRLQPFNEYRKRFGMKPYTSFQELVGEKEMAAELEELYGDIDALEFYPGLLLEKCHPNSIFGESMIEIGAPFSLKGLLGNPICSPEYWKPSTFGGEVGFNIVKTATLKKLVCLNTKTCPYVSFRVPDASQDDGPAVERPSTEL

SMILES | melting point | IC50 (platelet COX-1) | other results
Cc1onc(-c2ccco2)c1-c1ccccc1 [Example 12, 3-(Furan-2-yl)-4-phenyl-5-methylisoxazole] | 93 to 96 °C |  | 
OCc1onc(-c2ccc(Cl)o2)c1-c1ccccc1 [Example 17, 3-(5-Chlorofuran-2-yl)-4-phenyl-5-hydroxymethylisoxazole] | 102 to 103 °C | 4.2 µM | inhibition at 100 µM ([1]; 100 μM, LPS, read-out: COX-2 inhibition (I) at 100 μM): 44%
CC1(O)ON=C(c2ccc(Cl)o2)C1c1ccc(F)cc1 (stereo not drawn) [Example 2, 3-(5-Chlorofuran-2-yl)-4-(4-fluorophenyl)-5-hydroxy-5-methyl-2-isoxazoline] | 101 to 102 °C |  | 
Cc1onc(-c2ccc(Cl)o2)c1-c1ccccc1F [Example 7, 3-(5-Chlorofuran-2-yl)-4-(2-fluorophenyl)-5-methylisoxazole] |  | 1.9 µM | IC50 [1]: > 100 µM
O=C(O)c1onc(-c2ccc(Cl)o2)c1-c1ccccc1 [Example 15, [3-(5chlorofuran-2-yl)-4-phenylisoxazol-5-yl]carboxylic acid] | 168 to 170 °C |  | 
Cc1onc(-c2ccc(Br)o2)c1-c1ccccc1 [Example 14, 3-(5-Bromofuran-2-yl)-4-phenyl-5-methylisoxazole] | 93 to 96 °C |  | 
O=C(OCCCN1CCOCC1)c1onc(-c2ccc(Cl)o2)c1-c1ccccc1 [Example 19, 3-(Morpholin-1-yl)propyl[3-(5-chlorofuran-2-yl)-4-phenylisoxazol-5-yl]carboxilate] | 82 to 83.7 °C |  | 
CC(=O)OCc1onc(-c2ccc(Cl)o2)c1-c1ccccc1 [Example 18, 5-Acetoxymethyl-3-(5-chlorofuran-2-yl)-4-phenylisoxazole] |  | 5.2 µM | IC50 [1]: > 100 µM
FC(F)(F)c1onc(-c2ccc(Cl)o2)c1-c1ccccc1 [Example 5, 3-(5-Chlorofuran-2-yl)-4-phenyl-5-(trifluoromethyl)isoxazole] | 55 to 57 °C | 0.81 µM | IC50 [1]: > 100 µM
Cc1onc(-c2ccc(Cl)o2)c1-c1ccc(F)cc1 [Example 6, 3-(5-Chlorofuran-2-yl)-4-(4-fluorophenyl)-5-methylisoxazole] | 103.7 to 105.2 °C | 1.9 µM | IC50 [1]: > 100 µM
COC(=O)c1c(-c2ccc(Cl)o2)noc1-c1ccccc1 [Example 22, Methyl3[-(5-chlorofuran-2-yl)-5-phenylisoxazol-4-yl]carboxylate] | 113 to 117 °C (dec.) |  | 
O=C(OCCCBr)c1onc(-c2ccc(Cl)o2)c1-c1ccccc1 [Example 20, 3-Bromopropyl[3-(5-chlorofuran-2-yl)-4-phenylisoxazol-5-yl]carboxylate] | 100 to 101 °C |  | 
COC(=O)c1onc(-c2ccc(Cl)o2)c1-c1ccccc1 [Example 16, Methyl [3-(5-chlorofuran-2-yl)-4-phenylisoxazol-5-yl]carboxylate] | 130 to 131 °C |  | 
O=C(OCCCO[N+](=O)[O-])c1onc(-c2ccc(Cl)o2)c1-c1ccccc1 [Example 21, 3-(Nitroxy)propyl[3-(5-chlorofuran-2-yl)-4-phenylisoxazol-5-yl]carboxylate] | 79 to 79.8 °C |  | 
CC(=O)Oc1ccccc1C(=O)O [aspirin, acetylsalicylic acid] |  |  | prevention of non fatal vascular events [2]: 25-30%; prevention of vascular death [2]: 15-20%
